Blank lines part the entries; values can stand above or below the compound they belong to. Calls of active or inactive are those of the source. The rule behind the calls is not given here.
Legend:
[1] = Inhibition of C57BL/6 mouse CD4-positive T cell differentiation at 12.5 uM relative to control; format: functional; conditions: C57BL/6, CD4-positive T cell
[2] = Inhibition of C57BL/6 mouse CD4-positive T cell differentiation at 50 uM relative to control; format: functional; conditions: C57BL/6, CD4-positive T cell
[3] = Inhibition of C57BL/6 mouse CD4-positive T cell differentiation; format: functional, cell-based; conditions: C57BL/6, CD4-positive T cell
[4] = Inhibition of C57BL/6 mouse CD4-positive T cell differentiation at 6.25 uM relative to control; format: functional; conditions: C57BL/6, CD4-positive T cell
[5] = Inhibition of C57BL/6 mouse CD4-positive T cell differentiation at 25 uM relative to control; format: functional; conditions: C57BL/6, CD4-positive T cell
[6] = system: CD4-positive T cell; experiment: Reduction in ratio of RORgammat/IL-17 expression to FoxP3/IL-10 expression in human PBMC derived allogeneic CD4-positive T cells co-cultured with […] CD14 positive monocyte derived dendritic cells at 10 uM by flow cytometric analysis; format: functional, cell-based
[7] = system: Th1; experiment: Reduction in IFN-gamma production in C57BL/6 mouse Th1 cells at 10 uM by ELISA; format: functional, cell-based
[8] = system: Mus musculus; experiment: (§1) Anti-inflammatory activity in IL-23 induced mouse psoriasis-like skin inflammation model assessed as reduction in CXCL1 mRNA levels at 2 to 10 uM applied topically starting 1 day prior to IL-23 induction and continuing every other day for 14 days measured after 24 hrs post last dose by real-time PCR analysis; format: functional
[9] = system: Mus musculus; experiment: as §1, with “epidermal hyperplasia by measuring acanthosis” for “CXCL1 mRNA levels”, “hematoxylin and eosin staining based assay” for “real-time PCR analysis”; format: functional
[10] = system: Mus musculus; experiment: as §1, with “IL-4” for “CXCL1”; format: functional
[11] = system: Mus musculus; experiment: as §1, with “IFN-gamma” for “CXCL1”; format: functional
[12] = system: CD4-positive T cell; experiment: Inhibition of C57BL/6 mouse CD4-positive T cell differentiation assessed as decrease in RORgammat mRNA level 0.1 to 10 uM by real-time PCR analysis; format: functional, cell-based
[13] = system: Mus musculus; experiment: as §1, with “IL-1alpha” for “CXCL1”; format: functional
[14] = system: CD4-positive T cell; experiment: Inhibition of C57BL/6 mouse CD4-positive T cell differentiation assessed as decrease in GATA-3 mRNA level 0.1 to 10 uM by real-time PCR analysis; format: functional, cell-based
[15] = system: Mus musculus; experiment: as §1, with “TNF-alpha” for “CXCL1”; format: functional
[16] = system: Mus musculus; experiment: as §1, with “CCL27” for “CXCL1”; format: functional
[17] = biological target: T1, Tyrosine-protein kinase JAK1/JAK2 (Mus musculus) (UniProt P52332+Q62120); experiment: Inhibition of JAK1/JAK2 in C57BL/6 mouse CD4-positive T cell assessed as reduction in IFNgamma-induced STAT1 phosphorylation at 1 to 10 uM pretreated for 1 hr followed by IFNgamma addition after 15 mins by Western blot analysis
[18] = system: Splenocyte; experiment: Cytotoxicity against mouse splenocytes after 48 hrs by MTT assay; format: cell-based
[19] = system: Mus musculus; experiment: as §1, with “dermal inflammatory infiltrates” for “CXCL1 mRNA levels”, “hematoxylin and eosin staining based assay” for “real-time PCR analysis”; format: functional
[20] = system: Mus musculus; experiment: as §1, with “IL-17A” for “CXCL1”; format: functional
[21] = system: CD4-positive T cell; experiment: Reduction in FoxP3/IL-10 expression in human PBMC derived allogeneic CD4-positive T cells co-cultured with […] CD14 positive monocyte derived dendritic cells at 10 uM by flow cytometric analysis; format: functional, cell-based
[22] = system: Mus musculus; experiment: as §1, with “COX2” for “CXCL1”; format: functional
[23] = system: CD4-positive T cell; experiment: Inhibition of C57BL/6 mouse CD4-positive T cell differentiation assessed as decrease in T-bet mRNA level 0.1 to 10 uM by real-time PCR analysis; format: functional, cell-based
[24] = system: Mus musculus; experiment: as §1, with “IL-10” for “CXCL1”; format: functional
[25] = system: Mus musculus; experiment: as §1, with “IL-1beta” for “CXCL1”; format: functional
[26] = system: Treg cell; experiment: Reduction in IL-10 production in C57BL/6 mouse Treg cells at 10 uM by ELISA; format: functional, cell-based
[27] = system: Mus musculus; experiment: as §1, with “CCL20” for “CXCL1”; format: functional
[28] = system: Th17; experiment: Reduction in IL-17A production in C57BL/6 mouse Th17 cells at 10 uM by ELISA; format: functional, cell-based
[29] = organism: Mus musculus; experiment: Inhibition of […]/TYK2 in C57BL/6 mouse CD4-positive T cell assessed as reduction in IL-12-induced STAT1 phosphorylation at 1 to 10 uM pretreated for 1 hr followed by IL-12 addition after 30 mins by Western blot analysis
[30] = system: Mus musculus; experiment: as §1, with “IL-6” for “CXCL1”; format: functional
[31] = biological target: Tyrosine-protein kinase JAK1/JAK3 (Mus musculus) (UniProt P52332+Q62137); experiment: Inhibition of JAK1/JAK3 in C57BL/6 mouse CD4-positive T cell assessed as reduction in IL-4-induced STAT6 phosphorylation at 1 to 10 uM pretreated for 1 hr followed by IL-4 addition after 15 mins by Western blot analysis
[32] = system: Treg cell; experiment: Increase in IL-10 production in C57BL/6 mouse Treg cells by ELISA; format: functional, cell-based
[33] = system: CD4-positive T cell; experiment: Inhibition of C57BL/6 mouse CD4-positive T cell differentiation assessed as decrease in FoxP3 mRNA level 0.1 to 10 uM by real-time PCR analysis; format: functional, cell-based
[34] = system: Th17; experiment: Decrease in IL-17A mRNA level in C57BL/6 mouse Th17 cells 0.1 to 10 uM by real-time PCR analysis; format: functional, cell-based
[35] = organism: Mus musculus; experiment: Inhibition of […]/TYK2 in C57BL/6 mouse CD4-positive T cell assessed as reduction in IL-12-induced STAT4 phosphorylation at 1 to 10 uM pretreated for 1 hr followed by IL-12 addition after 30 mins by Western blot analysis
[36] = system: Mus musculus; experiment: as §1, with “CCR6” for “CXCL1”; format: functional
[37] = system: Mus musculus; experiment: as §1, with “CCL17” for “CXCL1”; format: functional
[38] = system: Treg cell; experiment: Increase in IL-10 mRNA level in C57BL/6 mouse Treg cells by real-time PCR analysis; format: functional, cell-based
[39] = biological target: T1, Tyrosine-protein kinase JAK1/JAK2 (Mus musculus); experiment: Inhibition of JAK1/JAK2 in C57BL/6 mouse CD4-positive T cell assessed as reduction in IFNgamma-induced STAT3 phosphorylation at 1 to 10 uM pretreated for 1 hr followed by IFNgamma addition after 15 mins by Western blot analysis
[40] = system: CD4-positive T cell; experiment: Reduction in RORgammat/IL-17 expression in human PBMC derived allogeneic CD4-positive T cells co-cultured with […] CD14 positive monocyte derived dendritic cells at 10 uM by flow cytometric analysis; format: functional, cell-based
[41] = system: Mus musculus; experiment: as §1, with “IL-22” for “CXCL1”; format: functional

T1 sequence (P52332 whole entry, looked up): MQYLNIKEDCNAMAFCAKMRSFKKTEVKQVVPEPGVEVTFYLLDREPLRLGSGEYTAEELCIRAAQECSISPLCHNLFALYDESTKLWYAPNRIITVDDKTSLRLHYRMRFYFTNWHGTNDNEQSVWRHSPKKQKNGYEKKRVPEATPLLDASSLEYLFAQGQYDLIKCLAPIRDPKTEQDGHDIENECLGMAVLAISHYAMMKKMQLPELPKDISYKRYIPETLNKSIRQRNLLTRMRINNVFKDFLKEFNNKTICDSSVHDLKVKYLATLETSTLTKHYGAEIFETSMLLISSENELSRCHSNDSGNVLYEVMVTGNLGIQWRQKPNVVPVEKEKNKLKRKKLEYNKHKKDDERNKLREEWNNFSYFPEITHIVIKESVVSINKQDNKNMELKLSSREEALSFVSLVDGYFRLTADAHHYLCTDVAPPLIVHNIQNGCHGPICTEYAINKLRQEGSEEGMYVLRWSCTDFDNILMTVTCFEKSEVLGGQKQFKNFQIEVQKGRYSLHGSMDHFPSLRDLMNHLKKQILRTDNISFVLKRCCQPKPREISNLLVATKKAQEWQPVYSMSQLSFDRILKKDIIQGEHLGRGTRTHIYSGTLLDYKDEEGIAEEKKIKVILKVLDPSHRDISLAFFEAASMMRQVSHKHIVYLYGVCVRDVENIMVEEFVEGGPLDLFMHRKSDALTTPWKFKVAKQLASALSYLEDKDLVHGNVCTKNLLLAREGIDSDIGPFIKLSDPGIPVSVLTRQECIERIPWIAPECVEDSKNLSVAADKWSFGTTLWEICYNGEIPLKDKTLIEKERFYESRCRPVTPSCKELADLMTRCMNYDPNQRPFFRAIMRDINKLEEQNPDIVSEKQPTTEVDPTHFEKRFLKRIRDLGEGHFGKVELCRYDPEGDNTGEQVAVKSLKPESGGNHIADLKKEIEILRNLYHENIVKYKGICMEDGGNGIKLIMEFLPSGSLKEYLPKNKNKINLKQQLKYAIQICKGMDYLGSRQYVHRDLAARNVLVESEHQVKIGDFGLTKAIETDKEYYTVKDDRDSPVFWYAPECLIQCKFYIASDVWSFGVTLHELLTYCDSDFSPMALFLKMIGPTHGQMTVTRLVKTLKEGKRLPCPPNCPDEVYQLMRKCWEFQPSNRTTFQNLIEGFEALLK
T1 sequence (Q62120 whole entry, looked up): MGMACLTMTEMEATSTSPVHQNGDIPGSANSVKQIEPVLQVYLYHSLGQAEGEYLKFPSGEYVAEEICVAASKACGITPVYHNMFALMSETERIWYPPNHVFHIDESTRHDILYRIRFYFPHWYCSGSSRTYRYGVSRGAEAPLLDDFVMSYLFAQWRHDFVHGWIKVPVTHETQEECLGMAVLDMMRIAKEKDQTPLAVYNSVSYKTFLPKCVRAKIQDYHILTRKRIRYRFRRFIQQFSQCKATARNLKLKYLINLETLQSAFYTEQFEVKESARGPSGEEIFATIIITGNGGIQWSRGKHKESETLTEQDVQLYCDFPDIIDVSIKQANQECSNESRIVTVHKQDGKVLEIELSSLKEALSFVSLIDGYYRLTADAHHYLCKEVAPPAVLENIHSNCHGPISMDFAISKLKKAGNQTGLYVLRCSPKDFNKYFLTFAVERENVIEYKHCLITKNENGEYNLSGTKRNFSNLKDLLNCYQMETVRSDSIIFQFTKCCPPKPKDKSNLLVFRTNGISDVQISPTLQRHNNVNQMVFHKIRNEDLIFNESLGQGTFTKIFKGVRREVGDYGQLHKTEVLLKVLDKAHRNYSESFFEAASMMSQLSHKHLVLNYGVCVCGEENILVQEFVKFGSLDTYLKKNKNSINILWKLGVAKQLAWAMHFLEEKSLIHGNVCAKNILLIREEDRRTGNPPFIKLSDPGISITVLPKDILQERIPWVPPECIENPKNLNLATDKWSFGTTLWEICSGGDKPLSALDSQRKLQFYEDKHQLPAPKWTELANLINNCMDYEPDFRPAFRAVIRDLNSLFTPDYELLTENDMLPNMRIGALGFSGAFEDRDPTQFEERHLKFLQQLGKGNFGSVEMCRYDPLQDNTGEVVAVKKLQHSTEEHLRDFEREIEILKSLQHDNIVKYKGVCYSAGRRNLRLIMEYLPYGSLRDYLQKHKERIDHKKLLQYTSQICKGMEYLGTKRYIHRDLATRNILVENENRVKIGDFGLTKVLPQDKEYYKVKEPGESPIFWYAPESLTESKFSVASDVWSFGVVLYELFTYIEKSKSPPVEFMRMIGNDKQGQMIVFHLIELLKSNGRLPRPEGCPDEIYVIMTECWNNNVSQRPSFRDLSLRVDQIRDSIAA
Sequence of Tyrosine-protein kinase JAK1/JAK3 (Mus musculus) (P52332 whole entry, looked up): as the sequence (P52332 whole entry, looked up) above
Sequence of Tyrosine-protein kinase JAK1/JAK3 (Mus musculus) (Q62137 whole entry, looked up): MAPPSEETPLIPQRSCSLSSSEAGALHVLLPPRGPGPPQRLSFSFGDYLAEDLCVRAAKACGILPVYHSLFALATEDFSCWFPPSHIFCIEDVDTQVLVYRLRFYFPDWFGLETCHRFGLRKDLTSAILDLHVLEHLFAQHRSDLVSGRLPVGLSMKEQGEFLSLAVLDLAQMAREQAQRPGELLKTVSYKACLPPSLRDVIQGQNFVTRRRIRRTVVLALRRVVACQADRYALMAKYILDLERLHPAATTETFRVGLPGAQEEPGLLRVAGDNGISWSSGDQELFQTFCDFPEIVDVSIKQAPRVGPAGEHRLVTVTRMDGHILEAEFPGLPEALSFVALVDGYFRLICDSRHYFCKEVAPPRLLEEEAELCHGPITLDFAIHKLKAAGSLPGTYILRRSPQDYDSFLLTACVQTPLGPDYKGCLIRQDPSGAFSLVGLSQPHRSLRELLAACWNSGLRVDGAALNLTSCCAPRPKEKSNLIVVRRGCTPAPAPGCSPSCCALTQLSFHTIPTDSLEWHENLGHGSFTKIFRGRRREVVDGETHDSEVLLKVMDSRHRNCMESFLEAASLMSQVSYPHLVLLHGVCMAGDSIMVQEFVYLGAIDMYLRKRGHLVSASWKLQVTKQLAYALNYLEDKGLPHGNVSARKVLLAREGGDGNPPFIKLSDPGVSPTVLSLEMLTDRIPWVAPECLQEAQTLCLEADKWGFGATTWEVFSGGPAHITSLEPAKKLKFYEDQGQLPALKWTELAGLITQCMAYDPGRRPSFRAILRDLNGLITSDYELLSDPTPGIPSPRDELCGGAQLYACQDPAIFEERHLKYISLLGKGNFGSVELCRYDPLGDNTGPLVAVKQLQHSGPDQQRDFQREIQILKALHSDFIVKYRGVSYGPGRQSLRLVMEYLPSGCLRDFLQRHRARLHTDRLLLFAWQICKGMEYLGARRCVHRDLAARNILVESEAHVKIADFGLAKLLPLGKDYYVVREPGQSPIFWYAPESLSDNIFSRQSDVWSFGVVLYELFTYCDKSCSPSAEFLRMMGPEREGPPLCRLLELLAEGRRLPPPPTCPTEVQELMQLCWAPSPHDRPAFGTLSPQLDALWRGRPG

IC50 [3]: 17.6 µM
SMILES: CC(=O)O[C@@H]1C[C@@]23C[C@@]24CC[C@H](O[C@@H]2OC[C@@H](O)[C@H](O)[C@H]2O)C(C)(C)[C@@H]4CC=C3[C@]2(C)C[C@]3(O)O[C@H](C(=O)[C@@H]4OC4(C)C)[C@@H](C)[C@@H]3[C@@]12C
inhibition at 12.5 µM [1]: 24.6%
inhibition at 50 µM [2]: 99.1%
inhibition at 6.25 µM [4]: 5.3%
inhibition at 25 µM [5]: 82.6%

IC50 [3]: 14.3 µM
SMILES: CC(=O)O[C@@H]1C[C@@]23C[C@@]24CC[C@H](O[C@@H]2O[C@H](CO)[C@H](O)[C@H](O)[C@H]2O)C(C)(C)[C@@H]4CC=C3[C@]2(C)C[C@@]3(O)O[C@H](C(=O)[C@H]4OC4(C)C)[C@@H](C)[C@@H]3[C@@]12C
inhibition at 12.5 µM [1]: 52.4%
inhibition at 50 µM [2]: 98.6%
inhibition at 6.25 µM [4]: 8.9%
inhibition at 25 µM [5]: 68.3%

Continued, compound first:

SMILES: C[C@@H]1C[C@H]([C@@H](O)C(C)(C)O)O[C@]2(O)[C@@H](O)[C@@]3(C)C4=CC[C@H]5C(C)(C)[C@@H](O[C@@H]6O[C@H](CO)[C@H](O)[C@H](O)[C@H]6O)CC[C@@]56C[C@@]46CC[C@]3(C)[C@@H]12
inhibition at 12.5 µM [1]: 51.5%
inhibition at 50 µM [2]: 99.6%
IC50 [3]: 18.3 µM
inhibition at 6.25 µM [4]: 10.3%
inhibition at 25 µM [5]: 74.1%

SMILES: CC(=O)O[C@@H]1C[C@@]23C[C@@]24CC[C@H](O[C@@H]2O[C@H](CO)[C@H](O)[C@H](O)[C@H]2O)C(C)(C)[C@@H]4CC[C@H]3[C@]2(C)C[C@]3(O)O[C@H](C(=O)[C@@H]4OC4(C)C)[C@@H](C)[C@@H]3[C@@]12C
Activity [6]: Active
inhibition at 12.5 µM [1]: 59.6%
Activity [7]: Active
Activity [8]: Active
Activity [9]: Active
Activity [10]: Active
Activity [11]: Active
inhibition at 50 µM [2]: 98.3%
inhibition [12]: Active
Activity [13]: Active
inhibition [14]: Active
Activity [15]: Active
IC50 [3]: 8.69 µM
Activity [16]: Active
inhibition [17]: Active
CC50 [18]: 88.8 µM
Activity [19]: Active
Activity [20]: Active
Activity [21]: Active
Activity [22]: Active
inhibition [23]: Active
Activity [24]: inactive
Activity [25]: Active
Activity [26]: Active
Activity [27]: Active
Activity [28]: Active
inhibition at 6.25 µM [4]: 29.6%
inhibition [29]: Active
Activity [30]: Active
inhibition [31]: Active
Activity [32]: Dose-dependent effect
inhibition [33]: inactive
Activity [34]: Active
inhibition [35]: Active
Activity [36]: Active
Activity [37]: Active
Activity [38]: Dose-dependent effect
inhibition [39]: Active
Activity [40]: Active
inhibition at 25 µM [5]: 93.6%
Activity [41]: Active

SMILES: CC(=O)O[C@H]([C@H]1C[C@@H](C)C2=C(O1)[C@@H](O)[C@@]1(C)[C@@H]3CC[C@H]4C(C)(C)[C@@H](O[C@@H]5O[C@H](CO)[C@H](O)[C@H](O)[C@H]5O)CC[C@@]45C[C@@]35CC[C@]21C)C(C)(C)O
inhibition at 12.5 µM [1]: 21.3%
inhibition at 50 µM [2]: 96.8%
IC50 [3]: 14.6 µM
inhibition at 6.25 µM [4]: 10.2%
inhibition at 25 µM [5]: 68.3%

SMILES: CC(=O)O[C@H]([C@H]1C[C@@H](C)C2=C(O1)[C@@H](O)[C@@]1(C)C3=CC[C@H]4C(C)(C)[C@@H](O[C@@H]5O[C@H](CO)[C@H](O)[C@H](O)[C@H]5O)CC[C@@]45C[C@@]35CC[C@]21C)C(C)(C)O
inhibition at 12.5 µM [1]: 54.3%
inhibition at 50 µM [2]: 96.6%
IC50 [3]: 12.6 µM
inhibition at 6.25 µM [4]: 21.6%
inhibition at 25 µM [5]: 92.1%
